Data: patent US20090036474A1, “Quinazoline derivatives for use against cancer” (priority 2004, published 2009)

Key:
PDGFRα tyrosine kinase = target: T1, PDGFRα tyrosine kinase (Homo sapiens, UniProt P16234); assay: In vitro enzyme assay (ELISA), Test (a), PDGFRα; assay type: biochemical; details: ATP 14 μM, read-out: IC50 versus PDGFRα tyrosine kinase
T1 construct: PDGFRα, PDGFRβ and KDR receptor cytoplasmic domains, obtained by expression of recombinant protein in insect cells; purchased Upstate Biotechnology Inc. 14-467; host or cells: Sf9 insect cells
Description: (§1) The ability of test compounds to inhibit the phosphorylation of a tyrosine containing polypeptide substrate by the tyrosine kinase enzymes PDGFRα, PDGFRβ and KDR was assessed using conventional ELISA assays. DNA encoding the PDGFRα, PDGFRβ or KDR receptor cytoplasmic domains may be obtained by total gene synthesis (International Biotechnology Lab., 1987, 5(3), 19-25) or by cloning. The DNA fragments may be expressed in a suitable expression system to obtain polypeptide with tyrosine kinase activity. For example, PDGFRα, PDGFRβ and KDR receptor cytoplasmic domains, obtained by expression of recombinant protein in insect cells, can be shown to display intrinsic tyrosine kinase activity. In the case of the VEGF receptor KDR (Genbank Accession No. L04947), a DNA fragment encoding most of the cytoplasmic domain, commencing with methionine 806 and including the termination codon may be cloned into a baculovirus transplacement vector [for example pAcYM1 (see The Baculovirus Expression System: A Laboratory Guide, L. A. King and R. D. Possee, Chapman and Hall, 1992) or pAc360 or pBlueBacHis (available from Invitrogen Corporation)]. This recombinant construct may be co-transfected into insect cells [for example Spodoptera frugiperda 21(Sf21) or Spodoptera frugiperda 9(Sf9)] with viral DNA (for example Pharmingen BaculoGold) to prepare recombinant baculovirus. […]

PDGFRβ tyrosine kinase = target: T2, PDGFRβ tyrosine kinase (Homo sapiens, UniProt P09619); assay: In vitro enzyme assay (ELISA), Test (a), PDGFRβ; assay type: biochemical; details: ATP 2.8 μM, read-out: IC50 versus PDGFRβ tyrosine kinase
T2 construct: PDGFRα, PDGFRβ and KDR receptor cytoplasmic domains, obtained by expression of recombinant protein in insect cells; purchased Upstate Biotechnology Inc. 14-463; host or cells: Sf9 insect cells
Description: as §1

KDR tyrosine kinase = target: T3, KDR tyrosine kinase (Homo sapiens, UniProt P35968); assay: In vitro enzyme assay (ELISA), Test (a), KDR; assay type: biochemical; details: ATP 8 μM, read-out: IC50 versus KDR tyrosine kinase
T3 construct: a DNA fragment encoding most of the cytoplasmic domain, commencing with methionine 806 and including the termination codon; made in house; host or cells: Sf9 insect cells (recombinant baculovirus)
Description: The ability of test compounds to inhibit the phosphorylation of a tyrosine containing polypeptide substrate by the tyrosine kinase enzymes PDGFRα, PDGFRβ and KDR was assessed using conventional ELISA assays. DNA encoding the PDGFRα, PDGFRβ or KDR receptor cytoplasmic domains may be obtained by total gene synthesis (International Biotechnology Lab., 1987, 5(3), 19-25) or by cloning. The DNA fragments may be expressed in a suitable expression system to obtain polypeptide with tyrosine kinase activity. For example, PDGFRα, PDGFRβ and KDR receptor cytoplasmic domains, obtained by expression of recombinant protein in insect cells, can be shown to display intrinsic tyrosine kinase activity. In the case of the VEGF receptor KDR (Genbank Accession No. L04947), a DNA fragment encoding most of the cytoplasmic domain, commencing with methionine 806 and including the termination codon may be cloned into a baculovirus transplacement vector [for example pAcYM1 (see The Baculovirus Expression System: A Laboratory Guide, L. A. King and R. D. Possee, Chapman and Hall, 1992) or pAc360 or pBlueBacHis (available from Invitrogen Corporation)]. This recombinant construct may be co-transfected into insect cells [for example Spodoptera frugiperda 21(Sf21) or Spodoptera frugiperda 9(Sf9)] with viral DNA (for example Pharmingen BaculoGold) to prepare recombinant baculovirus. Details of the methods for the assembly of recombinant DNA molecules and the preparation and use of recombinant baculovirus can be found in standard texts, for example Sambrook et al., 1989, Molecular cloning—A Laboratory Manual, 2nd edition, Cold Spring Harbour Laboratory Press and O'Reilly et al., 1992, Baculovirus Expression Vectors—A Laboratory Manual, W. H. Freeman and Co, New York).
For expression, Sf9 cells were infected with plaque-pure KDR recombinant virus and harvested 48 hours later. […]

phospho-Tyr751 PDGFRβ = target: T4, phospho-Tyr751 PDGFRβ (Homo sapiens, UniProt P09619); assay: In vitro phospho-Tyr751 PDGFRβ ELISA assay in MG63 osteosarcoma cells, Test (b); assay type: cell-based; details: MG63 cells stimulated with PDGFBB, read-out: IC50 versus phospho-Tyr751 PDGFRβ
T4 construct: phosphorylation of PDGFR expressed on MG63 osteosarcoma cells; endogenous in cells; host or cells: MG63 osteosarcoma cells
Description: This assay uses a conventional ELISA method to determine the ability of test compounds to inhibit phosphorylation of tyrosine in PDGFRβ.
An MG63 osteosarcoma cell line [American Type Culture Collection (ATCC) CCL 1427] was routinely maintained at 37° C. with 7.5% CO2 in Dulbecco's modified Eagle's growth medium (DMEM; Sigma-Aldrich; Catalogue No. D6546) containing 10% foetal calf serum (FCS; Sigma-Aldrich; Catalogue No. F7524) and 2 mM L-glutamine (Invitrogen Ltd., Paisley, UK; Catalogue No. 25030-024).
For the assay, the cells were detached from the culture flask using a trypsin/ethylenediaminetetraacetic acid (EDTA) mixture (Invitrogen Ltd.; Catalogue No. 15400-054) and resuspended in test media comprising DMEM without phenol red (Sigma-1-Aldrich; Catalogue No. D5921) containing 1% charcoal-stripped-foetal calf serum (FCS) (Sigma-Aldrich; Catalogue No. F7524, stripped by incubation with dextran-coated activated charcoal at 55° C. for 30 minutes with continuous stirring followed by removal of the charcoal by centrifugation and filter sterilisation) and 2 mM L-glutamine (Invitrogen Ltd., Catalogue No. 25030-024) to give 6×10^4 cells per ml. […]

[1] = tested on: dermatofibrosarcoma protruberans cell cultures; details: Cancer Research 2001; cited from earlier work
[2] = tested on: human glioblastoma lines U343 and U87; details: U343 and U87 injected into the brains of nude mice; Cancer Research 2000; cited from earlier work
PDGF receptor kinase = details: Nature Reviews 2002; Cancer Research 1996; cited from earlier work

T3 sequence (P35968 786-1356 limits assumed): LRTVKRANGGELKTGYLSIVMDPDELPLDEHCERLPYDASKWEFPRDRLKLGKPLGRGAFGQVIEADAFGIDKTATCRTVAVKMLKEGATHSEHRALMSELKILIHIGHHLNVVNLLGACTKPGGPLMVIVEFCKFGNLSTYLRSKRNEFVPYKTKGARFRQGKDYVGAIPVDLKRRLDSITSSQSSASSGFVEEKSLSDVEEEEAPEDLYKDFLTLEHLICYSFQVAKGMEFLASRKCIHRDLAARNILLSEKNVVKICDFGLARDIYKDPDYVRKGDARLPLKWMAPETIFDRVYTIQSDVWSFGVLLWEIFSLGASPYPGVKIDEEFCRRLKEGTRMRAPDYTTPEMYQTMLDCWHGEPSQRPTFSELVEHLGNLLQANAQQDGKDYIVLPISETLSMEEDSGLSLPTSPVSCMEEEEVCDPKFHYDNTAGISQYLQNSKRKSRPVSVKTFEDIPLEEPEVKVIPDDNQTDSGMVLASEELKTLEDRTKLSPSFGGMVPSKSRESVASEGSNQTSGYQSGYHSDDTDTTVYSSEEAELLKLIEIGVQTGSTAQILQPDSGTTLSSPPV
T4 sequence (P09619 33-1106): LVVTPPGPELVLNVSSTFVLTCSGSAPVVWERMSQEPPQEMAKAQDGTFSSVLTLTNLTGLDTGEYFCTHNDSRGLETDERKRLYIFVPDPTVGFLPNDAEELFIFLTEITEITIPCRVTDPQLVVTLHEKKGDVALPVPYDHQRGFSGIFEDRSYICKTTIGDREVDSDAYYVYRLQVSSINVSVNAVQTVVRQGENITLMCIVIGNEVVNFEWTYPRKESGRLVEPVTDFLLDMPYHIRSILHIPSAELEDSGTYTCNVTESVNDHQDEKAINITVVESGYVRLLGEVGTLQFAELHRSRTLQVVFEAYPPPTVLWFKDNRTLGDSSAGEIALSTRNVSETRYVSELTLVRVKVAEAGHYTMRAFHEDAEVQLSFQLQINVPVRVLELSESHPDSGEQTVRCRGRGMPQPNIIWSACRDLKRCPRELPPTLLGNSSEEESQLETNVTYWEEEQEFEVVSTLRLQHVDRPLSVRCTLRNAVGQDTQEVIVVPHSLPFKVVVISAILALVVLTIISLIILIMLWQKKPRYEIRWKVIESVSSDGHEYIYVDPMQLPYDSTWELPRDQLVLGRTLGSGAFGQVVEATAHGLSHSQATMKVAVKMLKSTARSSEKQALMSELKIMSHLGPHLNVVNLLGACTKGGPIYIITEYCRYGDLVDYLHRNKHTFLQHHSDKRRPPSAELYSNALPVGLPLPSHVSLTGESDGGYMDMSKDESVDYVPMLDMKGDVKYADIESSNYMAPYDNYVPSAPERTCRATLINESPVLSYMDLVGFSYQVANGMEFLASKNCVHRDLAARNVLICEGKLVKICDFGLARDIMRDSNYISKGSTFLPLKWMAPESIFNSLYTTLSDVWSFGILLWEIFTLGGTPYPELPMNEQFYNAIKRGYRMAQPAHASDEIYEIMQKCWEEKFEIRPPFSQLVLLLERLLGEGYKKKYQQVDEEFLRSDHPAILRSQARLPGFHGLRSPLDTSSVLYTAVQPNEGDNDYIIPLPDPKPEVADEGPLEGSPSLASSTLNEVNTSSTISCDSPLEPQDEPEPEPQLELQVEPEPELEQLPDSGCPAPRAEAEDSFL
T1 sequence (P16234 550-1089 limits assumed): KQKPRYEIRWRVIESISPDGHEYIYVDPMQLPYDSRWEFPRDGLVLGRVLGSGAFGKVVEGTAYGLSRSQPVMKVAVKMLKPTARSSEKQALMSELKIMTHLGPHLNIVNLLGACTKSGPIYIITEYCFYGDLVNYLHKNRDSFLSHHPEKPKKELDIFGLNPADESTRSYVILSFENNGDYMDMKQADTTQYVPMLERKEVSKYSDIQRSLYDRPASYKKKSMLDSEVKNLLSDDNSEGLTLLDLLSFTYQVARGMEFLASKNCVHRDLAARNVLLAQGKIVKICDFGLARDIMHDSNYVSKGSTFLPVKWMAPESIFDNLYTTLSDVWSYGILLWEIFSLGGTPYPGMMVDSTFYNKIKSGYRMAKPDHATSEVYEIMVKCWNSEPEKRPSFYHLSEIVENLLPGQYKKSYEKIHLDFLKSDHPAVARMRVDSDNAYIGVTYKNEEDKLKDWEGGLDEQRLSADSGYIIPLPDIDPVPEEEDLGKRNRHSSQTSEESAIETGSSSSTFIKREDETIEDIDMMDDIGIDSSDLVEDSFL
T2 sequence (P09619 554-1106 limits assumed): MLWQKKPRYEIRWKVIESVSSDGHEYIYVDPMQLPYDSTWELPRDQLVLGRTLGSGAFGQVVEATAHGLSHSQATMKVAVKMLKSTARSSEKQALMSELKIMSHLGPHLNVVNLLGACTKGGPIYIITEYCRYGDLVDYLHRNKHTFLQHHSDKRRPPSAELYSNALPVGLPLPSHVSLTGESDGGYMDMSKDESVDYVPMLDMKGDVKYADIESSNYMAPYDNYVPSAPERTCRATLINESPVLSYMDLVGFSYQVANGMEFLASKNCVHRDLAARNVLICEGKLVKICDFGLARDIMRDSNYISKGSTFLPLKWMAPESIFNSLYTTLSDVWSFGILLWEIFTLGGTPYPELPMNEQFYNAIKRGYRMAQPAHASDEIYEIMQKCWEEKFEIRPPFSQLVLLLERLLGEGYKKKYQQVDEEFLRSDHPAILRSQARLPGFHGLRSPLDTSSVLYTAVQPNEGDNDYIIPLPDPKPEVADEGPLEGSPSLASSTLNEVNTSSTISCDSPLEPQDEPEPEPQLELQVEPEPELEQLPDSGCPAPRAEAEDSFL

IC50 (PDGFRα tyrosine kinase) [nM]	IC50 (PDGFRβ tyrosine kinase) [nM]	IC50 (KDR tyrosine kinase) [nM]	IC50 (phospho-Tyr751 PDGFRβ) [nM]	Compound	in vivo growth of dermatofibrosarcoma protruberans cell cultures [1]	growth of glioblastoma tumours [2]	inhibition of PDGF receptor kinase activity (PDGF receptor kinase)
~7	~0.5	~30	–	COc1cc2ncnc(Oc3cnn(CC(=O)Nc4ccc5c(c4)OCO5)c3)c2cc1OC [Example 1, N-(3,4-methylenedioxyphenyl)-2-[4-(6,7-dimethoxyquinazolin-4-yloxy)pyrazol-1-yl]acetamide]	–	–	–
–	–	~2	~1	COc1cc2ncnc(Oc3cnn(CC(=O)Nc4ccc5c(c4)NCC5)c3)c2cc1OC [Example 40, N-(6-indolinyl)-2-[4-(6,7-dimethoxyquinazolin-4-yloxy)pyrazol-1-yl]acetamide]	–	–	–
–	–	–	–	Cc1ccc(NC(=O)c2ccc(CN3CCN(C)CC3)cc2)cc1Nc1nccc(-c2cccnc2)n1 [imatinib]	inhibits the in vivo growth	inhibits the growth	inhibit PDGF receptor kinase activity
